Measurements: a melting point compilation (Tetko et al.; mined from patent text by program, amines drawn as free bases though some values may be those of a salt)

melting point [°C] | Compound
101 to 103 | CSCC(=O)C(Cc1ccc2ccccc2c1)NC(=O)C(CC(C)C)NC(=O)OCc1ccccc1 (stereo not drawn)
150 to 152 | CC1CN(c2ccc(Cl)c(Cl)c2)N=C1NC=O (stereo not drawn)
197 | CN1CCC(C(=O)Nc2cccc3nc(NC4CCc5ccccc54)ccc23)CC1 (stereo not drawn)
59 to 60 | Cc1ccc2c(c1)CCN2c1ccccc1C#N
104 to 105 | CCOC(=O)C1CCn2c(cc3cc(OC)ccc32)C1 (stereo not drawn)
98 to 99 | Nc1cccc(OCc2ccc3ccccc3n2)c1
146 to 148 | CC1=C(C(=O)O)[C@H](c2cccc([N+](=O)[O-])c2)C(C(=O)OCOC(=O)C(C)(C)C)=C(C)N1
179 to 181 | CC(C)n1nc(C(=O)NCC2CCN(CCc3ccc(C(=O)O)cc3)CC2)c2ccccc21
184 to 185 | N#CCc1c[nH]c2ccc(CS(N)(=O)=O)cc12
162 to 165 | O=C(NCc1ccc(Cl)cc1)c1ccc2cccnc2c1O
167 to 168 | COc1ccc2c(C(C)C(=O)O)cnc(Cl)c2c1 (stereo not drawn)
186 | Cc1ccc(N2CCN(S(=O)(=O)c3cccc(/C=C/C(=O)NO)c3)CC2C)cc1 (stereo not drawn)
134 to 135 | Cc1oc(-c2ccccc2)nc1COc1cccc(CCCC2OC(=O)NC2=O)c1 (stereo not drawn)
133 | Cc1cccc(C)c1N(CCl)C(=O)c1ccccc1
155 to 157 | Nc1cnccc1Oc1ccc2[nH]ccc2c1
124 to 126 | FC(F)(F)c1cccc(OC(c2ccc(Cl)cc2)c2nnn[nH]2)c1 (stereo not drawn)
143 to 144 | COc1cc(COc2ncccc2CO)ccc1OCc1nc(-c2ccccc2)oc1C
208 | O=Cc1ccc(C=CC(=O)N2CCc3c([nH]c4ccccc34)C2c2ccc3c(c2)OCO3)cc1 (stereo not drawn)
206 | N#Cc1ccccc1NC1=CC(=O)CCC1
213 to 215 | O=C(O)C1=C(Sc2ccccc2)CC2CC(=O)C12 (stereo not drawn)
122 to 125 | O=Cc1cccc(C=O)c1O
80 | Cn1ccc2c(C(=O)c3ccccc3O)cccc21
164 to 165 | COC(=O)c1cc(-c2ccccn2)n(-c2ccc(Cl)nn2)n1
116 | O=C1C(=O)N(c2cccc(C(F)(F)F)c2)C(=O)N1c1ccccc1
100 to 101 | CCOC(=O)Cc1ccc2cc(Br)ccc2n1
120 to 121 | CC(C)(C)c1ccc2c(c1)Cc1cc(C(C)(C)C)ccc1-2
98 to 99 | Cc1oc(-c2ccc(Cl)cc2)nc1COc1cccc(/C=C/C(C)N(O)C(N)=O)c1 (stereo not drawn)

melting point [°C] | Compound
147 | OCC1OC(n2cnc3c(NCc4ccccc4)nc(Cl)nc32)CC1O (stereo not drawn)
232 to 234 | O=C1C=CC=C2CN=CC=C12
160 to 164 | Cc1cc(C)c(/C=C2\C(=O)N(CN3CCN(C)CC3)c3ccccc32)[nH]1
188 | O=C1C=CC2(C=C1)N=C(N1CCN(Cc3ccc(F)cc3)CC1)C=C2c1ccccc1
230 to 233 | CC(=NO)c1ccc(N)c(S(N)(=O)=O)c1
118 to 119 | O=C1NCC(Cc2ccc(Oc3ccccc3)cc2)O1 (stereo not drawn)
189 to 190 | O=c1[nH]c2c(CCN3CCN(c4ncccn4)CC3)cccc2o1
104 to 105 | CCOC(=O)c1cnc(-c2ccccc2OCC2CC2)[nH]c1=O
238 to 239 | Cc1scc2c1N(C(=O)Cl)c1ccccc1NC2=O
227 to 229 | CC(=O)Nc1ccc(-c2nc3ccccc3s2)cc1
129 to 130 | O=C(NCCCSc1ccncc1)c1cc(Br)c(Br)s1
83 to 85 | FC(F)(F)c1cccc(-n2cnnc2Oc2ccccc2)c1
150 to 151 | OC1CSC(Sc2ccccc2)C(O)C1O (stereo not drawn)
105 to 108 | c1ccc(CCn2cnc3cnc4ccccc4c32)cc1
286 to 289 | CCOC(=O)c1cnc2cc(-c3ccccc3)sc2c1O
51 to 52 | Cc1occc(=O)c1OCc1ccccc1
212 | N#Cc1c(N2CCCCC2)cc(-c2ccc(Br)cc2)c2c1Cc1ccccc1-2
189 to 191 | COC(=O)c1ccc(NC(=N)Nc2nc(-c3ccccc3)cs2)cc1
262 to 263 | O=c1[nH]c(-c2ccc(Cl)c(Cl)c2)co1
177 to 178 | O=c1ccn(CCO)c(C(O)c2ccccc2F)c1O (stereo not drawn)
60.5 to 61.6 | CCCCCCn1c(-c2ccc3c(c2)OCO3)nc2ccccc21
193 to 194 | Nc1nc2n(n1)Cc1ccccc1-2
171 to 172 | CCN(CC)CCn1nc2c3c(c(NCCN4C(=O)c5ccccc5C4=O)ccc31)Sc1cc(OC)ccc1-2
88 to 89 | COC(=O)c1cccc(-c2cccc([N+](=O)[O-])c2)c1
271 to 273 | COc1cc2ncnc(Nc3cccc4ccccc34)c2cc1OC
67 to 69 | CCC1Nc2cc(F)c(F)cc2-n2cccc21 (stereo not drawn)
158 | Cc1ccc(N)cc1Nc1ncc(-c2ccncc2)o1

More lines, now with the values behind:

Compound | melting point [°C]
CCn1c(=O)c2[nH]c(/C=C/c3ccc(F)c(Cl)c3)nc2n(CC)c1=O | > 270
Clc1ccc2c(c1)NCc1ccccc1O2 | 94 to 95
CC(C)C[C@@H](CO)NC(=O)[C@@H](O)[C@@H](Cc1ccc(S(C)(=O)=O)cc1)NC(=O)OCc1ccccc1 | 165 to 173
O=C(c1ccn2c1CSC2c1cccnc1)c1c[nH]c2cc(Br)ccc12 (stereo not drawn) | 265
CCOc1cc(C(C)(c2cc(OCC)c(O)c(OCC)c2)c2cc(OCC)c(O)c(OCC)c2)cc(OCC)c1O | 78
Cc1ccc(S(=O)(=O)NCCNC(C)C)cc1 | 76 to 78
CC(=Cc1ccc(-c2noc3cc(Cl)ccc23)cc1)[N+](=O)[O-] | 160 to 162
COC(=O)c1ccc(OCCCN2CCN(c3ccc(Cl)nn3)CC2)cc1 | 128 to 130
Cn1c(=O)c(-c2ccc(Cl)cc2Cl)cc2c3cc(I)ccc3n(C)c21 | 223 to 225
CC1=CC(=O)C(C)=C(CCC(C)(C)COc2ccc(CC3SC(=O)NC3=O)cc2)C1=O (stereo not drawn) | 173
CCOc1ccc(C(=O)C=Cc2ccc(SC)cc2)cc1 | 108
CCCCc1nn(-c2cc(NC(=O)CC)ccc2C(F)(F)F)c(=O)n1Cc1ccc(-c2ccccc2S(=O)(=O)NC(=O)c2ccccc2Cl)cc1 | 102 to 105
CC(C)(C)c1ccc(CCC(CO)CC2CCCCC2)cc1NC(=O)CC1c2ccccc2Oc2ccccc21 (stereo not drawn) | 130 to 131
Cc1ccc(S(=O)(=O)Oc2cc(C(C)(C)C)c(SC3=C(O)CC(CCc4ccc(O)cc4)(C4CCCCC4)OC3=O)cc2C)cc1 (stereo not drawn) | 105
CCn1cc(C(=O)O)c(=O)c2cc(F)c(-c3cc(C)nc(C)c3)cc21 | > 310
CC(C)NC(=O)c1c(OS(C)(=O)=O)cccc1C(=O)O | 56 to 59
COc1cc(NC(=O)c2ccccc2Cl)ccc1C(=O)N1CCCC(OCCNS(=O)(=O)C(F)(F)F)c2cc(Cl)ccc21 (stereo not drawn) | 140 to 142
COc1ccc(C2CCN(C(=O)Nc3ccc4cc(CN5CCCC5)cnc4c3)CC2)cc1 | 241 to 243
Cc1nnc(-c2cc3c(OCCCN4CCC(c5ccc6c(c5)OCO6)CC4)cccc3o2)o1 | 125 to 127
CCn1c(COc2ccc(NC(=O)c3cc(F)cc(N4CCOCC4)c3)c3ccccc23)n[nH]c1=O | 260
CN(CCN)CCNC(=O)c1nc(Br)c(N)nc1N | 148 to 150
Cc1nc(-n2ccc(OCc3ccc(F)cc3)cc2=O)sc1C(=O)NCc1ccc(F)cc1 | 249 to 251
CC1NC(=NC2CNCCO2)N(CCO)C1C (stereo not drawn) | 108 to 109
CCCCCCCCCCCCN(c1nc(Cl)nc(Cl)n1)c1nc(Cl)nc(Cl)n1 | 50 to 53
O=S(=O)(CCl)c1ccc(O)c(Cl)c1 | 108

Compound | melting point [°C]
COC(C(=O)O)c1ccc2c(c1)C(C)(C)CCC2(C)C (racemic) | 135 to 136
CC(C)C/C=C(\C[C@H](N)C(=O)O)C(=O)O | 190 to 199
COc1ccc(N2CCN(c3c(C)c(C)c4c(c3C)CC(C)(CN(C)C)O4)CC2)cc1 (stereo not drawn) | 145 to 148
O=C(CC1CC2CCC1C2)NCC1CCN(c2ncccn2)CC1 (stereo not drawn) | 121 to 126
Cc1cc(-c2nc3cccnn3c2-c2ccnc(NC(=O)c3cnccn3)c2)ccc1F | 229 to 230
CCCC[Si](C)(C)CCSCCCNC(=O)n1cc(F)c(=O)[nH]c1=O | 83.5 to 84
COc1ccc(CN2CCC(c3cn(Cc4ccco4)c4ccccc34)CC2)cc1C(=O)O | 237 to 238
CC(O)CNC(=O)NC(=O)C(CC1CCCC1)c1ccc(Cl)c(Cl)c1 (stereo not drawn) | 117 to 120
COc1cc2c(cc1OC)OC(C#N)C2 (stereo not drawn) | 162
COc1c(C)c(C)c(OC)c(CC/C(C)=C/CO)c1C | 46
CCCC(=O)Nc1n[nH]c2cc(Cl)ccc12 | 230
COc1cc(/C=C/C(=O)Nc2ccc(Br)cc2)ccc1F | 163 to 165
CCc1cc(C(=O)CBr)ccc1O | > 260
COc1ccc(/C=C/S(=O)(=O)CS(=O)(=O)/C=C/c2ccc(O)c(OC)c2)cc1N | 148 to 150
N#Cc1cccc(C=CC(=O)c2ccc(F)cc2)c1 | 170 to 172
O=S1(=O)C=C(Br)C=C1CO | 56 to 57
CCCCCCCCCCCCCCc1ccc(OCC(O)CO)cc1 (stereo not drawn) | 81.5 to 83.5
C=CCNC1=NS(=O)(=O)c2cc(Cl)cnc2N1 | 224 to 227
O=c1c(-c2cccc(F)c2)c(CNc2ncnc3[nH]cnc23)oc2ccc(F)cc12 | 229 to 232
O=c1c2cc3nnn(C4CC4)c(=O)c3cc2ncn1CCn1ncnn1 | 194 to 195
CC(C)(C)OC(=O)N1CCCC2(CCN(c3ccc4nc(-c5ccc(F)cc5)c(-c5ccnc6[nH]ccc56)n4n3)CC2)C1 | 192 to 193
COP(=O)(OC)C(=O)Cc1ccccc1 | 117 to 122
O=C(N1CCOCC1)N1CCN(Cc2ccc3c(c2)-c2[nH]nc(-c4ccsc4)c2C3)CC1 | 188 to 190
COc1cc(C(C)=O)cc(OC)c1OCCCN1CCC(c2noc3cc(F)ccc23)CC1 | 107 to 108
